Measured values from ChEMBL document CHEMBL5465560, “Selectivity Literature for EUbOPEN Chemogenomic Library” (2024).

Assays:
[1] = target: Tyrosine-protein kinase Fer (Homo sapiens) (UniProt P16591); settings: at 10 µM
[2] = target: T1, Serine/threonine-protein kinase D1 (Homo sapiens) (UniProt Q15139); assay: Selectivity interaction (KinomeScan (DiscoverX)) EUB0001079a PRKD1; settings: at 1 µM
T1 sequence (whole entry): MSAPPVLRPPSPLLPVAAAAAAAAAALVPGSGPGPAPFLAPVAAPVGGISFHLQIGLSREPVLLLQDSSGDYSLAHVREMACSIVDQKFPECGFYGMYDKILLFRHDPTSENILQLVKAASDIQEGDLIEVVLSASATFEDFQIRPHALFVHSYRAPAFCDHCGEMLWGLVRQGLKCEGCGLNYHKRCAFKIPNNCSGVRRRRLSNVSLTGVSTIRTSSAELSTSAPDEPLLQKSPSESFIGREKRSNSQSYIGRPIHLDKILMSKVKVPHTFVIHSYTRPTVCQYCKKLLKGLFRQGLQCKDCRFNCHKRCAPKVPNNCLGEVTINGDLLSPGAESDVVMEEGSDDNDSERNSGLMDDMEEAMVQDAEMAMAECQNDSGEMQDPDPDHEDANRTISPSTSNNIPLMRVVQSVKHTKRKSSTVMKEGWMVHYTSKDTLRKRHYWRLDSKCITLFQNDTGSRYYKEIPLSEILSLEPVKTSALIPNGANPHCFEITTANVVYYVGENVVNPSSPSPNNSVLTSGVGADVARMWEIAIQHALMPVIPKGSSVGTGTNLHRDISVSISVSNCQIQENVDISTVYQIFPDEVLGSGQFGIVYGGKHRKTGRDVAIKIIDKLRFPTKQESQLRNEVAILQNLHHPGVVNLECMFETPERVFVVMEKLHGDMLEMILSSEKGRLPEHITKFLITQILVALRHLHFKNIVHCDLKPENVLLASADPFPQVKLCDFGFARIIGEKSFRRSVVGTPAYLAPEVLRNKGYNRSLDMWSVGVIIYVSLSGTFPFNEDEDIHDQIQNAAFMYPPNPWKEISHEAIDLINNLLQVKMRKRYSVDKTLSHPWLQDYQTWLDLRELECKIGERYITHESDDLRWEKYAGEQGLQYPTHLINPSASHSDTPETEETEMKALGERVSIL

[3] = target: T2, Mitogen-activated protein kinase kinase kinase 12 (Homo sapiens) (UniProt Q12852); assay: Selectivity interaction (KinomeScan (DiscoverX)) EUB0001619a MAP3K12; settings: at 1 µM
T2 sequence (whole entry): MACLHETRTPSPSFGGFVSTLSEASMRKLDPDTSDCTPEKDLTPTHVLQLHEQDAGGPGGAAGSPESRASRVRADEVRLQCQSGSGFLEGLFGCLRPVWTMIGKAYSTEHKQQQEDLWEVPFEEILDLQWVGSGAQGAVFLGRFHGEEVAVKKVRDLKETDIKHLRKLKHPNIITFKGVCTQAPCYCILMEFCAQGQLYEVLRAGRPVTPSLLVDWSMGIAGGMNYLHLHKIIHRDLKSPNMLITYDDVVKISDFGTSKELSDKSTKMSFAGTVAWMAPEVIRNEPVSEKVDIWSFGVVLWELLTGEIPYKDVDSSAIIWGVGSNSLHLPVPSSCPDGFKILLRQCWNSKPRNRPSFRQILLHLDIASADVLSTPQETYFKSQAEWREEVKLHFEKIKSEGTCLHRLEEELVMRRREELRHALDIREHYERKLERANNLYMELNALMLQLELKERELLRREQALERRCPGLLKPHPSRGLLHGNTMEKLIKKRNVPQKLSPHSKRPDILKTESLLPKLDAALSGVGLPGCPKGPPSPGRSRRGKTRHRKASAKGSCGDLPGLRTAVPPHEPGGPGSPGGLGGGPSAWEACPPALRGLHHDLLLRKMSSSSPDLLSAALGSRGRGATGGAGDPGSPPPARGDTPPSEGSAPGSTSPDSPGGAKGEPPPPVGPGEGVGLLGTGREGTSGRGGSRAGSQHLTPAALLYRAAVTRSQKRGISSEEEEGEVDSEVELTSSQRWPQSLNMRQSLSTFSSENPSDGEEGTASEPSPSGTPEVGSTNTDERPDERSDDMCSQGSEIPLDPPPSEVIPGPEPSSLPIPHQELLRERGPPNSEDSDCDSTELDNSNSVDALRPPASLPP

[4] = target: Mitogen-activated protein kinase kinase kinase 10 (Homo sapiens) (UniProt Q02779); assay: Selectivity interaction (KinomeScan (DiscoverX)) EUB0001619a MAP3K10; settings: at 1 µM
[5] = target: Serine/threonine-protein kinase PRP4 homolog (Homo sapiens) (UniProt Q13523); assay: Selectivity interaction (KinomeScan (DiscoverX)) EUB0001619a PRPF4; settings: at 1 µM
[6] = target: Serine/threonine-protein kinase 25 (Homo sapiens) (UniProt O00506); assay: Selectivity interaction (ActivX KiNativ screen (ex vivo kinase selectivity in human PBMCs)) EUB0001619a STK25; assay type: cell-based; settings: PBMC, at 1 µM
[7] = target: Serine/threonine-protein kinase SMG1 (Homo sapiens) (UniProt Q96Q15); assay: Selectivity interaction (Kinase panel (KiNativ target engagement assay in Jurkat cells)) EUB0001635a SMG1; assay type: cell-based; settings: Selectivity number of off-targets 0.0, Selectivity number of targets 233.0, Source Knowledge https://www.sciencedirect.com/science/article/pii/S2451945619300674?via%3Dihub, at 1 µM
Aurora kinase B = Aurora kinase B (Homo sapiens, UniProt Q96GD4); assay: Selectivity interaction (ActivX KiNativ screen (kinase selectivity in THP-1 cell lysates)) EUB0000639a AURKB; assay type: subcellular; settings: lysate, at 0.04 µM
[8] = target: Dual specificity mitogen-activated protein kinase kinase 2 (Homo sapiens) (UniProt P36507); assay: Selectivity interaction (ActivX KiNativ screen (kinase selectivity in THP-1 cell lysates)) EUB0000639a MAP2K2; assay type: subcellular; settings: lysate, at 0.04 µM
[9] = target: Mitogen-activated protein kinase 8 (Homo sapiens, UniProt P45983); assay: Selectivity interaction (KinomeScan (DiscoverX)) EUB0000229b MAPK8; settings: at 10 µM
[10] = target: Dual specificity protein kinase CLK4 (Homo sapiens, UniProt Q9HAZ1); assay: Selectivity interaction (ProQinase) EUB0000171b CLK4
[11] = target: Serine/threonine-protein kinase MRCK alpha (Homo sapiens) (UniProt Q5VT25); assay: Selectivity interaction (KinomeScan (DiscoverX)) EUB0000666a CDC42BPA; settings: at 10 µM
[12] = target: Tyrosine-protein kinase Yes (Homo sapiens) (UniProt P07947); assay: Selectivity interaction (Kinase screening (Nanosyn)) EUB0000604a YES1
Chain of Tyrosine-protein kinase Yes (Homo sapiens) (P07947 2-543 limits assumed): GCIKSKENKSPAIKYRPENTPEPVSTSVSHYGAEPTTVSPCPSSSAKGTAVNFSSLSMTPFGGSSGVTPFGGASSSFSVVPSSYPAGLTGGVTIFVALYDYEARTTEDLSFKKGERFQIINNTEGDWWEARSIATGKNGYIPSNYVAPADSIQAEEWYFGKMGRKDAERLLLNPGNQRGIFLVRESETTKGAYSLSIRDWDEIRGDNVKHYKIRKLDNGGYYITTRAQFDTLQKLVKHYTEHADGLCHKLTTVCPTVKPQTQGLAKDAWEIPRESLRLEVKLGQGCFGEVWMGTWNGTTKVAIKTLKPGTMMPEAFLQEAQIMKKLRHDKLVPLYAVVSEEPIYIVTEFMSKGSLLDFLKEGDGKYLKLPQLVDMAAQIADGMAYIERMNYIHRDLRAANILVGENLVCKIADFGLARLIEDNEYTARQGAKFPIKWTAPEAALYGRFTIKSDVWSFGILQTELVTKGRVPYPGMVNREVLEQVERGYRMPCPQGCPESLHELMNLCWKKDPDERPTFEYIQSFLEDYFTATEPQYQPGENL

Chain of Dual specificity protein kinase CLK4 (Q9HAZ1 whole entry, looked up): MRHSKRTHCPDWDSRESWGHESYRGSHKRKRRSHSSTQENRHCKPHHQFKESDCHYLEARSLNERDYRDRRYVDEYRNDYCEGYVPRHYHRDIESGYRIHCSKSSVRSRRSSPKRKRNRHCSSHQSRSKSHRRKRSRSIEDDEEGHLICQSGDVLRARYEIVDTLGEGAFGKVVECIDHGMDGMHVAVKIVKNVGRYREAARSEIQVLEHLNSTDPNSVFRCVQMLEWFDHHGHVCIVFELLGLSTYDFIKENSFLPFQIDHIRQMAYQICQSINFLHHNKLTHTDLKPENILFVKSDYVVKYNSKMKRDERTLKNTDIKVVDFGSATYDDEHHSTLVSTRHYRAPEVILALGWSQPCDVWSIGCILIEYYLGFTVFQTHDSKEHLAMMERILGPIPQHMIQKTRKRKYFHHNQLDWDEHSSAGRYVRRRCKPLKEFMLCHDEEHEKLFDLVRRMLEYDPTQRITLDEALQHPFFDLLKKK
Chain of Serine/threonine-protein kinase 25 (Homo sapiens) (O00506 whole entry, looked up): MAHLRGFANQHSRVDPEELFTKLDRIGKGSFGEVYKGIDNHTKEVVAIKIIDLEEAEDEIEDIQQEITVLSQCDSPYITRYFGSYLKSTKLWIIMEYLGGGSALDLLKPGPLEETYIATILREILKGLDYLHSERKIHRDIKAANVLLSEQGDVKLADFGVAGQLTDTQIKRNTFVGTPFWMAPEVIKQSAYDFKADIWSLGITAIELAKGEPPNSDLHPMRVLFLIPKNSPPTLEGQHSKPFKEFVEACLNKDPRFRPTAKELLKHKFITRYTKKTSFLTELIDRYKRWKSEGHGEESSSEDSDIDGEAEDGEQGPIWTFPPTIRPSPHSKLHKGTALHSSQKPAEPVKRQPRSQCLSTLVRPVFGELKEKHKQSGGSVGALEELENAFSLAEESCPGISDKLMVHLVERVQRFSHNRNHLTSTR
Chain of Serine/threonine-protein kinase SMG1 (Homo sapiens) (Q96Q15 whole entry): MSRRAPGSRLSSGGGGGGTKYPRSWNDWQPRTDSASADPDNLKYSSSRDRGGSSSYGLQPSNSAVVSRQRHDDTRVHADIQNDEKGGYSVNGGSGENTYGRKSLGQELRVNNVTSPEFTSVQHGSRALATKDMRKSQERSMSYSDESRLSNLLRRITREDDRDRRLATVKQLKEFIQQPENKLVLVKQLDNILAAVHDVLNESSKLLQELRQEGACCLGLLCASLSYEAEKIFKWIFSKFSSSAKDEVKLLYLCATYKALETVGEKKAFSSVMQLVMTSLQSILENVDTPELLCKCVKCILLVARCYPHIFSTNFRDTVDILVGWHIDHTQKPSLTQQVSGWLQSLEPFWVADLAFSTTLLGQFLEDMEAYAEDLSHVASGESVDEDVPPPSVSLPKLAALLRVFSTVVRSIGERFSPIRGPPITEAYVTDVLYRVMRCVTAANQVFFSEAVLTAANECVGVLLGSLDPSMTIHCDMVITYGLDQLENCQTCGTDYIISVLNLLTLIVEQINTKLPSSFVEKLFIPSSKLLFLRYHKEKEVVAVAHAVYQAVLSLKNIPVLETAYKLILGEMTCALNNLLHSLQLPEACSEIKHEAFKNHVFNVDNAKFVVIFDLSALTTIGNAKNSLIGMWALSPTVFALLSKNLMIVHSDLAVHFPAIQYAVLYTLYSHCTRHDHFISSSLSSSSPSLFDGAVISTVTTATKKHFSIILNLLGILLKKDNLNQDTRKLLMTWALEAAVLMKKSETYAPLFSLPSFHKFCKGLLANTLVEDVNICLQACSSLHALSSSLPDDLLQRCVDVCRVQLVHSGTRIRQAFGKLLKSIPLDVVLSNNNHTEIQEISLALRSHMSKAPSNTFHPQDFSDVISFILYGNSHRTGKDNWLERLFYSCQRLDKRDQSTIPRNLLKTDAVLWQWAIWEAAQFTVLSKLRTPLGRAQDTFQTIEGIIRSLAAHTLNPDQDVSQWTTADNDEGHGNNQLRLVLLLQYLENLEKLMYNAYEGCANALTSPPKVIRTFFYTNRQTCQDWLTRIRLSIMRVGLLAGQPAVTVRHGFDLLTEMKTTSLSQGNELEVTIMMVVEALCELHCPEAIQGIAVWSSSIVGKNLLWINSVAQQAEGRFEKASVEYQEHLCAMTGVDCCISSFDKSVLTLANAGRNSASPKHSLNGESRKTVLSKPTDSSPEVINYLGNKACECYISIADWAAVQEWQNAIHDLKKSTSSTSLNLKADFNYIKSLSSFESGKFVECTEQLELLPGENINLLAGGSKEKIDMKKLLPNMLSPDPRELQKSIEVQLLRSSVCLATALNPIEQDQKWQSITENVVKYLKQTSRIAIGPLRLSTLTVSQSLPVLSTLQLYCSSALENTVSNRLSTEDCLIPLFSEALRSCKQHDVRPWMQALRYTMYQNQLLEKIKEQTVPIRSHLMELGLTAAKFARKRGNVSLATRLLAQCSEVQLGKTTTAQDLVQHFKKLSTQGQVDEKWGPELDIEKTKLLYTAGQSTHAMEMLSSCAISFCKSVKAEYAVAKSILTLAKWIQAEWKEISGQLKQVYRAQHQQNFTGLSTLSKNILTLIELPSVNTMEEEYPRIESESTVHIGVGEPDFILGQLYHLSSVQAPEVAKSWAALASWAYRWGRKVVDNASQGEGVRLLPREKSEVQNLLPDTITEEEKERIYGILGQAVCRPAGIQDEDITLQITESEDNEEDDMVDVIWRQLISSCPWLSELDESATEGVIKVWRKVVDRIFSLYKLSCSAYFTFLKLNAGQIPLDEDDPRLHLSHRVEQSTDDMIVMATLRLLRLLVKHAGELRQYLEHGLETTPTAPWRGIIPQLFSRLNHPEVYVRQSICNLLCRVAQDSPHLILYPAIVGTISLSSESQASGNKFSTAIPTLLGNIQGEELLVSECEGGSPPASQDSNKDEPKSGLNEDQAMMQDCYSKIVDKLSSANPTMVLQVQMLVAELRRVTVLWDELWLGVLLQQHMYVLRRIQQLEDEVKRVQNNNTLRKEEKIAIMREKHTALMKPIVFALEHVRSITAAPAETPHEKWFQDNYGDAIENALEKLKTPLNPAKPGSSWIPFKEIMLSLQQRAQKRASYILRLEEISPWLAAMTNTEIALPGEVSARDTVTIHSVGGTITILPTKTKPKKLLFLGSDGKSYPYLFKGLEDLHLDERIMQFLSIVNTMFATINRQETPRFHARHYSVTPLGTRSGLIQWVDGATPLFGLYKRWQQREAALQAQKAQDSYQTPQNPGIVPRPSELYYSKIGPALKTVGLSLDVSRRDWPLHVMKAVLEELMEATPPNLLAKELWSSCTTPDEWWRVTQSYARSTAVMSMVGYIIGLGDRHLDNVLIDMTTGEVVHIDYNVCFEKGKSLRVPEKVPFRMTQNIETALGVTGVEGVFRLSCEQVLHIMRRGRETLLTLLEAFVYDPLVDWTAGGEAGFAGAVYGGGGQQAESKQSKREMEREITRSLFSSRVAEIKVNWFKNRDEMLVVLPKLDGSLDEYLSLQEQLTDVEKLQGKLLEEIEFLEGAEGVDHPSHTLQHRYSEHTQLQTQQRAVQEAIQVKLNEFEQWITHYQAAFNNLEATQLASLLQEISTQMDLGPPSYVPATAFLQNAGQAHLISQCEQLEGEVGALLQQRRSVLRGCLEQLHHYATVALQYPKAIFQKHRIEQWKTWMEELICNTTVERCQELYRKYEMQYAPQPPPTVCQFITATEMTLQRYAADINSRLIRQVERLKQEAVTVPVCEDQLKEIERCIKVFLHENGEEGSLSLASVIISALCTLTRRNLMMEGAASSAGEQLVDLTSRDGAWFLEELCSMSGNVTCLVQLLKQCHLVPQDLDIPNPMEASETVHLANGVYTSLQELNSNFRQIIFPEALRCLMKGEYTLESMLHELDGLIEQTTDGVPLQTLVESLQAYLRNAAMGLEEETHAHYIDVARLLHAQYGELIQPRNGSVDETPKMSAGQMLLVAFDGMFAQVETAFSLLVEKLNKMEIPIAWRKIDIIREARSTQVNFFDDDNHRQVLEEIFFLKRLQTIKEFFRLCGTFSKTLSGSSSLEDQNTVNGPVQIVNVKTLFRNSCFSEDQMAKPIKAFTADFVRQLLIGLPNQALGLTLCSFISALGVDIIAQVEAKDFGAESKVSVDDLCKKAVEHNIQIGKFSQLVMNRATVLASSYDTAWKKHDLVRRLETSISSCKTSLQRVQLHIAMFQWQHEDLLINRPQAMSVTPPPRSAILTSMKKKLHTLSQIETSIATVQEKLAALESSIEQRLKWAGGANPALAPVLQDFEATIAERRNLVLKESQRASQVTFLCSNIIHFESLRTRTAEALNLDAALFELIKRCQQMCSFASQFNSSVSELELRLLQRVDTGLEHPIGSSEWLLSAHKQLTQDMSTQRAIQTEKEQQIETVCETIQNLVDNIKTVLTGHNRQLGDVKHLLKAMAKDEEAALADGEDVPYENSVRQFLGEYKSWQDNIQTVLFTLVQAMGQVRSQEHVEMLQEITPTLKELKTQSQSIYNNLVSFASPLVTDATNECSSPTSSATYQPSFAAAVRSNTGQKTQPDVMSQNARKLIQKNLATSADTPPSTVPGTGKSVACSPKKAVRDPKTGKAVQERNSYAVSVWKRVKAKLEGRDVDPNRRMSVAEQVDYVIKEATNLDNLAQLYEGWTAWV

CCN(CC)CCCCNc1ncc2cc(-c3cc(OC)cc(OC)c3)c(NC(=O)NC(C)(C)C)nc2n1
% of control [1]: 100%

Nc1cnc(N2CCc3cc(S(=O)(=O)Nc4c(F)cc(Cl)cc4F)cc(N4CCCC4=O)c32)nc1 [TP-020n]
% of control [2]: 83%

N#Cc1cccc(-c2c[nH]c3ncnc(N4CCOCC4)c23)c1
% of control [3]: 96%
% of control [4]: 100%
% of control [5]: 92%
% of inhibition [6]: 65%

C=CC(=O)Nc1ccc(C(=O)Nc2[nH]nc3c2CN(C(=O)N[C@H](CN(C)C)c2ccccc2)C3(C)C)cc1
% of engagement [7]: -6.6%

CC[C@@H]1[C@H](F)C(=O)N[C@@H]1COc1nccc2cc(C(N)=O)c(OC)cc12 [ZIMLOVISERTIB]
% of inhibition (Aurora kinase B): -1.3%
% of inhibition [8]: -38.8%

COc1cc(N(C)c2ccnc3ccc(C(F)(F)F)cc23)cc(OC)c1OC
% binding [9]: 72%

C=CC(=O)Nc1cccc(C(=O)Nc2ccc(Nc3cc(-c4[nH]c(SC)nc4C)ccn3)cc2)c1
% of control ([10]; at 1 µM): 46%
% of control ([10]; at 5 µM): 20%

O=C(NOC[C@H](O)CO)c1ccc(F)c(F)c1Nc1ccc(I)cc1F
% of control [11]: 100%

Cc1cnc(Nc2ccc(F)cc2Cl)nc1-c1c[nH]c(C(=O)N[C@H](CO)c2cccc(Cl)c2)c1
% of inhibition [12]: 5%
